The text below walks through data of US12404284B2, “Spirocyclic inhibitors of hepatitis B virus” (Ospedale San Raffaele S.r.l., priority 2020, dated 2025).

Experiment [1] concerns HBV. The experiment in a line: Anti-HBV activity in vitro: extracellular HBV DNA by direct qPCR in HepAD38 cells. The format is cell-based. The settings on record: Hepatitis B virus, doxycycline-free medium, 96 hours, read-out: HBV inh EC50. The text has this:
HepAD38 cell line (Ladner et al., Antimicrob Agents Chemother, 1997, 41, 1715-20) was used for HBV inhibition assays. HepAD38 is a subclone, derived from hepatoblastoma cell line HepG2 (ATCC® Number: HB-8065™), that expresses HBV genome under the transcriptional control of a tetracycline-responsive promoter in a TET-OFF system: addition of doxycycline, an antibiotic belonging to the class of tetracycline, suppresses HBV replication, while its removal switches on the process allowing HBV viral particles release in the cell supernatant. […]
Anti-HBV activity in vitro HBV inhibition activity in vitro was performed in 96 multiwell plates. […] From the dose-response curves, half maximal effective concentration (EC50) could be calculated (see also below). […]
Plates were then incubated 96 hours at 37° C. and then subjected to cell viability assays and extracellular HBV quantification, in order to evaluate both the cytotoxic potential and the anti-viral activity of compounds. Cytotoxicity was assessed by a commercial fluorescence assay that measures the metabolic activity of cells, directly related to cell viability (Cell Titer Blue, Promega). Anti-HBV activity was evaluated by quantification of extracellular HBV DNA with direct qPCR. […]
(In general: Real-time PCR tracks product formation cycle by cycle.)

For experiment [2], the system named is HBV. Conditions: Phase 1b clinical studies; cited from earlier work.

As usually defined, the EC50 is the concentration at which the effect is half-maximal. As to `Cn1cc2c(c1C(=O)Nc1ccc(F)c(Cl)c1)OC[C@@]1(CCN(C(=O)C(=O)NCC(F)(F)F)C1)NS2(=O)=O` [Example E25, (S)—N-(3-chloro-4-fluorophenyl)-7′-methyl-1-(2-oxo-2-((2,2,2-trifluoroethyl)amino)acetyl)-2′H,4′H,7′H-spiro[pyrrolidine-3,3′-pyrrolo[3,4-b][1,4,5]oxathiazepine]-6′-carboxamide 1′,1′-dioxide], the EC50 in the experiment on HBV [1] was below 500 nM. Still for that read-out and setting: to `C[C@@H](NC(=O)C(=O)N1CCC2(CC1)COc1c(c(Cl)n(C)c1C(=O)Nc1ccc(F)c(C(F)F)c1)S(=O)(=O)N2)C(F)(F)F` [Example E35, (R)-8′-chloro-N-(3-(difluoromethyl)-4-fluorophenyl)-7′-methyl-1-(2-oxo-2-((1,1,1-trifluoropropan-2-yl)amino)acetyl)-2′H,4′H,7′H-spiro[piperidine-4,3′-pyrrolo[3,4-b][1,4,5]oxathiazepine]-6′-carboxamide 1′,1′-dioxide] belongs below 500 nM. `O=C(Nc1cc(F)c(F)c(F)c1)c1ccc(F)c(S(=O)(=O)N2CCC(O)CC2)c1` [NVR3-778]: in the experiment on HBV [2], the “reduction in HBV DNA” value is “significant reduction” and the “reduction in serum HBV RNA” value is “significant reduction”.
